# Measurements from ChEMBL document CHEMBL1127579, “Novel, potent luteinizing hormone-releasing hormone antagonists with improved solubility in water” (1994).
# Columns and labels:
# Type in all cases: functional
# [1] = species: Rattus norvegicus; assay: Antiovulatory activity expressed as ratio of rats ovulated/total rats at a dose of 1.0 ug; 0/10
# [2] = species: Rattus norvegicus; assay: Evaluated for histamine releasing activity
# [3] = species: Rattus norvegicus; assay: Antiovulatory activity expressed as ratio of rats ovulated/total rats at a dose of 0.5 microg; 9/25
# [4] = species: Rattus norvegicus; assay: Antiovulatory activity expressed as ratio of rats ovulated/total rats at a dose of 0.5 microg; 5/8
# [5] = species: Rattus norvegicus; assay: Antiovulatory activity expressed as ratio of rats ovulated/total rats at a dose of 0.5 microg; 2/5
# [6] = species: Rattus norvegicus; assay: Antiovulatory activity expressed as ratio of rats ovulated/total rats at a dose of 0.25 microg; 6/10
# [7] = species: Rattus norvegicus; assay: Antiovulatory activity expressed as ratio of rats ovulated/total rats at a dose of 0.5 microg; 0/10
# [8] = species: Rattus norvegicus; assay: Antiovulatory activity expressed as ratio of rats ovulated/total rats at a dose of 0.5 microg; 6/7
# [9] = species: Rattus norvegicus; assay: Antiovulatory activity expressed as ratio of rats ovulated/total rats at a dose of 0.5 microg; 3/8
# [10] = species: Rattus norvegicus; assay: Antiovulatory activity expressed as ratio of rats ovulated/total rats at a dose of 1.0 ug; 0/8
# [11] = species: Rattus norvegicus; assay: Antiovulatory activity expressed as ratio of rats ovulated/total rats at a dose of 0.5 microg; 3/6
# [12] = species: Rattus norvegicus; assay: Antiovulatory activity expressed as ratio of rats ovulated/total rats at a dose of 0.5 microg; 4/5
# [13] = species: Rattus norvegicus; assay: Antiovulatory activity expressed as ratio of rats ovulated/total rats at a dose of 0.25 microg; 2/12
# [14] = species: Rattus norvegicus; assay: Antiovulatory activity expressed as ratio of rats ovulated/total rats at a dose of 1.0 ug; 0/6
# [15] = species: Rattus norvegicus; assay: Antiovulatory activity expressed as ratio of rats ovulated/total rats at a dose of 0.5 microg; 2/6
# [16] = species: Rattus norvegicus; assay: Antiovulatory activity expressed as ratio of rats ovulated/total rats at a dose of 0.25 microg; 3/7
# [17] = species: Rattus norvegicus; assay: Antiovulatory activity expressed as ratio of rats ovulated/total rats at a dose of 0.5 microg; 2/12
smiles,measurement,setting,value
CC(=O)N[C@H](Cc1ccc2ccccc2c1)C(=O)N[C@H](Cc1ccc(Cl)cc1)C(=O)N[C@H](Cc1cccnc1)C(=O)N[C@@H](CO)C(=O)N[C@@H](CCCCNC(=O)c1cccnc1)C(=O)N[C@H](CCCCNC(=O)c1cccnc1)C(=O)N[C@@H](CC(C)C)C(=O)N[C@@H](CCCCN)C(=O)N1CCC[C@H]1C(=O)N[C@H](C)C(=O)O,Ratio,[1],0
same,ED50,[2],> 300 µg/mL
same,Ratio,[3],9
CC(=O)N[C@H](Cc1ccc2ccccc2c1)C(=O)N[C@H](Cc1ccc(Cl)cc1)C(=O)N[C@H](Cc1cccnc1)C(=O)N[C@@H](CO)C(=O)N[C@@H](CCCCNC(=O)c1cccnc1)C(=O)N[C@H](CCCCNC(=O)c1ccccn1)C(=O)N[C@@H](CC(C)C)C(=O)N[C@@H](CCCCN)C(=O)N1CCC[C@H]1C(=O)N[C@H](C)C(=O)O,Ratio,[4],5
same,ED50,[2],60 µg/mL
CC(=O)N[C@H](Cc1ccc2ccccc2c1)C(=O)N[C@H](Cc1ccc(Cl)cc1)C(=O)N[C@H](Cc1cccnc1)C(=O)N[C@@H](CO)C(=O)N[C@@H](CCCCNC(=O)c1ccccn1)C(=O)N[C@H](CCCCNC(=O)c1cccnc1N)C(=O)N[C@@H](CC(C)C)C(=O)N[C@@H](CCCCNC(C)C)C(=O)N1CCC[C@H]1C(=O)N[C@H](C)C(=O)O,Ratio,[5],2
CC(=O)N[C@H](Cc1ccc2ccccc2c1)C(=O)N[C@H](Cc1ccc(Cl)cc1)C(=O)N[C@H](Cc1cccnc1)C(=O)N[C@@H](CO)C(=O)N[C@@H](CCCCNC(=O)c1ccccn1)C(=O)N[C@H](CCCCNC(=O)c1ccccn1)C(=O)N[C@@H](CC(C)C)C(=O)N[C@@H](CCCCN)C(=O)N1CCC[C@H]1C(=O)N[C@H](C)C(=O)O,Ratio,[6],6
same,ED50,[2],93 µg/mL
same,Ratio,[7],0
CC(=O)N[C@H](Cc1ccc2ccccc2c1)C(=O)N[C@H](Cc1ccc(Cl)cc1)C(=O)N[C@H](Cc1cccnc1)C(=O)N[C@@H](CO)C(=O)N[C@@H](CCCCNC(=O)c1nccnc1N)C(=O)N[C@H](CCCCNC(=O)c1nccnc1N)C(=O)N[C@@H](CC(C)C)C(=O)N[C@@H](CCCCNC(C)C)C(=O)N1CCC[C@H]1C(=O)N[C@H](C)C(=O)O,Ratio,[8],6
CC(=O)N[C@H](Cc1ccc2ccccc2c1)C(=O)N[C@H](Cc1ccc(Cl)cc1)C(=O)N[C@H](Cc1cccnc1)C(=O)N[C@@H](CO)C(=O)N[C@@H](CCCCNC(=O)c1ccccn1)C(=O)N[C@H](CCCCNC(=O)c1cccnc1)C(=O)N[C@@H](CC(C)C)C(=O)N[C@@H](CCCCN)C(=O)N1CCC[C@H]1C(=O)N[C@H](C)C(=O)O,Ratio,[9],3
same,ED50,[2],39 µg/mL
same,Ratio,[10],0
CC(=O)N[C@H](Cc1ccc2ccccc2c1)C(=O)N[C@H](Cc1ccc(Cl)cc1)C(=O)N[C@H](Cc1cccnc1)C(=O)N[C@@H](CO)C(=O)N[C@@H](CCCCNC(=O)c1cnccn1)C(=O)N[C@H](CCCCNC(=O)c1ccccn1)C(=O)N[C@@H](CC(C)C)C(=O)N[C@@H](CCCCN)C(=O)N1CCC[C@H]1C(=O)N[C@H](C)C(=O)O,Ratio,[11],3
CC(=O)N[C@H](Cc1ccc2ccccc2c1)C(=O)N[C@H](Cc1ccc(Cl)cc1)C(=O)N[C@H](Cc1cccnc1)C(=O)N[C@@H](CO)C(=O)N[C@@H](CCCNC(=O)c1cnccn1)C(=O)N[C@H](CCCNC(=O)c1ccc(N)nc1)C(=O)N[C@@H](CC(C)C)C(=O)N[C@@H](CCCN=C(N)N)C(=O)N1CCC[C@H]1C(=O)N[C@H](C)C(=O)O,Ratio,[12],4
CC(=O)N[C@H](Cc1ccc2ccccc2c1)C(=O)N[C@H](Cc1ccc(Cl)cc1)C(=O)N[C@H](Cc1cccnc1)C(=O)N[C@@H](CO)C(=O)N[C@@H](CCCCNC(=O)c1ccccn1)C(=O)N[C@H](CCCCNC(=O)c1ccc(N)nc1)C(=O)N[C@@H](CC(C)C)C(=O)N[C@@H](CCCN=C(N)N)C(=O)N1CCC[C@H]1C(=O)N[C@H](C)C(=O)O,Ratio,[13],2
same,Ratio,[14],0
same,ED50,[2],8 µg/mL
same,Ratio,[15],2
CC(=O)N[C@H](Cc1ccc2ccccc2c1)C(=O)N[C@H](Cc1ccc(Cl)cc1)C(=O)N[C@H](Cc1cccnc1)C(=O)N[C@@H](CO)C(=O)N[C@@H](CCCCNC(=O)c1ccccn1)C(=O)N[C@H](CCCCNC(=O)c1ccc(N)nc1)C(=O)N[C@@H](CC(C)C)C(=O)N[C@@H](CCCCNC(C)C)C(=O)N1CCC[C@H]1C(=O)N[C@H](C)C(=O)O,Ratio,[16],3
same,Ratio,[14],0
same,ED50,[2],96 µg/mL
same,Ratio,[17],2
